Like-named read-outs stand apart in the source and are kept apart here.
Legend:
Fungi/yeasts = details: 8 strains, 7 days
Mycobacteria = details: 20 strains, 7 days
Gram-positive bacteria = details: 10 strains, 7 days
Enterobacteria = details: 7 strains, 7 days
Pseudomonas aeruginosa = details: 50 strains, 7 days
[1] = selective agent 5 mg/l in medium L
[2] = selective agent 10 mg/l in medium L
[3] = selective agent 20 mg/l in medium L
[4] = selective agent 2.5 mg/l in medium L
[5] = selective agent 5.0 mg/l in medium L
[6] = selective agent 0.125 mg/l in medium L
[7] = selective agent 0.25 mg/l in medium L
[8] = selective agent 0.5 mg/l in medium L
[9] = selective agent 400 mg/l in medium L
[10] = selective agent 800 mg/l in medium L
[11] = selective agent 1600 mg/l in medium L
[12] = selective agent 32 mg/l in medium L
[13] = selective agent 64 mg/l in medium L
[14] = selective agent 128 mg/l in medium L
[15] = selective agent 16 mg/l in medium L

Compound: C[C@@H]1[C@H](O)[C@@H](C)/C=C/C=C/C=C/C=C/C=C/C=C/C=C/[C@H](O[C@@H]2O[C@H](C)[C@@H](O)[C@H](N)[C@@H]2O)C[C@@H]2O[C@](O)(C[C@@H](O)C[C@@H](O)[C@H](O)CC[C@@H](O)C[C@@H](O)CC(=O)O[C@H]1C)C[C@H](O)[C@H]2C(=O)O [amphotericin B]
- Number of strains having shown growth (Fungi/yeasts; [1]): 6
- Percentage of strains having shown growth (Fungi/yeasts; [1]): (75%)
- Number of strains having shown growth (Fungi/yeasts; [2]): 4
- Percentage of strains having shown growth (Fungi/yeasts; [2]): (50%)
- Number of strains having shown growth (Fungi/yeasts; [3]): 3
- Percentage of strains having shown growth (Fungi/yeasts; [3]): (37.5%)
- Number of strains having shown growth (Mycobacteria; [1]): 20
- Percentage of strains having shown growth (Mycobacteria; [1]): (100%)
- Number of strains having shown growth (Mycobacteria; [2]): 20
- Percentage of strains having shown growth (Mycobacteria; [2]): (100%)
- Number of strains having shown growth (Mycobacteria; [3]): 20
- Percentage of strains having shown growth (Mycobacteria; [3]): (100%)

Compound: CN[C@H](CC(C)C)C(=O)N[C@H]1C(=O)N[C@@H](CC(N)=O)C(=O)N[C@H]2C(=O)N[C@H]3C(=O)N[C@H](C(=O)N[C@H](C(=O)O)c4cc(O)cc(O)c4-c4cc3ccc4O)[C@H](O)c3ccc(c(Cl)c3)Oc3cc2cc(c3O[C@@H]2O[C@H](CO)[C@@H](O)[C@H](O)[C@H]2O[C@H]2C[C@](C)(N)[C@H](O)[C@H](C)O2)Oc2ccc(cc2Cl)[C@H]1O [vancomycin]
- Number of strains having shown growth (Mycobacteria; [4]): 19
- Percentage of strains having shown growth (Mycobacteria; [4]): (95%)
- Number of strains having shown growth (Mycobacteria; [1]): 19
- Percentage of strains having shown growth (Mycobacteria; [1]): (95%)
- Number of strains having shown growth (Mycobacteria; [2]): 19
- Percentage of strains having shown growth (Mycobacteria; [2]): (95%)
- Number of strains having shown growth (Gram-positive bacteria; [4]): 0
- Number of strains having shown growth (Gram-positive bacteria; [5]): 0
- Number of strains having shown growth (Gram-positive bacteria; [2]): 0
- Number of strains having shown growth (Enterobacteria; [4]): 7
- Percentage of strains having shown growth (Enterobacteria; [4]): (100%)
- Number of strains having shown growth (Enterobacteria; [5]): 7
- Percentage of strains having shown growth (Enterobacteria; [5]): (100%)
- Number of strains having shown growth (Enterobacteria; [2]): 7
- Percentage of strains having shown growth (Enterobacteria; [2]): (100%)
- Number of strains having shown growth (Pseudomonas aeruginosa; [4]): 50
- Percentage of strains having shown growth (Pseudomonas aeruginosa; [4]): (100%)
- Number of strains having shown growth (Pseudomonas aeruginosa; [5]): 50
- Percentage of strains having shown growth (Pseudomonas aeruginosa; [5]): (100%)
- Number of strains having shown growth (Pseudomonas aeruginosa; [2]): 50
- Percentage of strains having shown growth (Pseudomonas aeruginosa; [2]): (100%)

Compound: CN(C)c1ccc(C(=C2C=CC(=[N+](C)C)C=C2)c2ccccc2)cc1 [malachite green]
- Number of strains having shown growth (Mycobacteria; [6]): 16
- Percentage of strains having shown growth (Mycobacteria; [6]): (80%)
- Number of strains having shown growth (Mycobacteria; [7]): 20
- Percentage of strains having shown growth (Mycobacteria; [7]): (100%)
- Number of strains having shown growth (Mycobacteria; [8]): 20
- Percentage of strains having shown growth (Mycobacteria; [8]): (100%)
- Number of strains having shown growth (Gram-positive bacteria; [6]): 10
- Percentage of strains having shown growth (Gram-positive bacteria; [6]): (100%)
- Number of strains having shown growth (Gram-positive bacteria; [7]): 10
- Percentage of strains having shown growth (Gram-positive bacteria; [7]): (100%)
- Number of strains having shown growth (Gram-positive bacteria; [8]): 9
- Percentage of strains having shown growth (Gram-positive bacteria; [8]): (90%)
- Number of strains having shown growth (Enterobacteria; [6]): 7
- Percentage of strains having shown growth (Enterobacteria; [6]): (100%)
- Number of strains having shown growth (Enterobacteria; [7]): 7
- Percentage of strains having shown growth (Enterobacteria; [7]): (100%)
- Number of strains having shown growth (Enterobacteria; [8]): 7
- Percentage of strains having shown growth (Enterobacteria; [8]): (100%)
- Number of strains having shown growth (Pseudomonas aeruginosa; [6]): 50
- Percentage of strains having shown growth (Pseudomonas aeruginosa; [6]): (100%)
- Number of strains having shown growth (Pseudomonas aeruginosa; [7]): 50
- Percentage of strains having shown growth (Pseudomonas aeruginosa; [7]): (100%)
- Number of strains having shown growth (Pseudomonas aeruginosa; [8]): 50
- Percentage of strains having shown growth (Pseudomonas aeruginosa; [8]): (100%)

Compound: C[C@@H]1O[C@@H]1P(=O)(O)O [fosfomycin]
- Number of strains having shown growth (Mycobacteria; [9]): 20
- Percentage of strains having shown growth (Mycobacteria; [9]): (100%)
- Number of strains having shown growth (Mycobacteria; [10]): 20
- Percentage of strains having shown growth (Mycobacteria; [10]): (100%)
- Number of strains having shown growth (Mycobacteria; [11]): 20
- Percentage of strains having shown growth (Mycobacteria; [11]): (100%)
- Number of strains having shown growth (Gram-positive bacteria; [9]): 0
- Number of strains having shown growth (Gram-positive bacteria; [10]): 0
- Number of strains having shown growth (Gram-positive bacteria; [11]): 0
- Number of strains having shown growth (Enterobacteria; [9]): 3
- Percentage of strains having shown growth (Enterobacteria; [9]): (43%)
- Number of strains having shown growth (Enterobacteria; [10]): 2
- Percentage of strains having shown growth (Enterobacteria; [10]): (29%)
- Number of strains having shown growth (Enterobacteria; [11]): 2
- Percentage of strains having shown growth (Enterobacteria; [11]): (29%)
- Number of strains having shown growth (Pseudomonas aeruginosa; [9]): 15
- Percentage of strains having shown growth (Pseudomonas aeruginosa; [9]): (30%)
- Number of strains having shown growth (Pseudomonas aeruginosa; [10]): 8
- Percentage of strains having shown growth (Pseudomonas aeruginosa; [10]): (16%)
- Number of strains having shown growth (Pseudomonas aeruginosa; [11]): 6
- Percentage of strains having shown growth (Pseudomonas aeruginosa; [11]): (12%)

Compound: colistin methanesulfonate
- Number of strains having shown growth (Mycobacteria; [12]): 20
- Percentage of strains having shown growth (Mycobacteria; [12]): (100%)
- Number of strains having shown growth (Mycobacteria; [13]): 20
- Percentage of strains having shown growth (Mycobacteria; [13]): (100%)
- Number of strains having shown growth (Mycobacteria; [14]): 20
- Percentage of strains having shown growth (Mycobacteria; [14]): (100%)
- Number of strains having shown growth (Gram-positive bacteria; [12]): 7
- Percentage of strains having shown growth (Gram-positive bacteria; [12]): (70%)
- Number of strains having shown growth (Gram-positive bacteria; [13]): 6
- Percentage of strains having shown growth (Gram-positive bacteria; [13]): (60%)
- Number of strains having shown growth (Gram-positive bacteria; [14]): 5
- Percentage of strains having shown growth (Gram-positive bacteria; [14]): (50%)
- Number of strains having shown growth (Enterobacteria; [12]): 3
- Percentage of strains having shown growth (Enterobacteria; [12]): (43%)
- Number of strains having shown growth (Enterobacteria; [13]): 3
- Percentage of strains having shown growth (Enterobacteria; [13]): (43%)
- Number of strains having shown growth (Enterobacteria; [14]): 3
- Percentage of strains having shown growth (Enterobacteria; [14]): (43%)
- Number of strains having shown growth (Pseudomonas aeruginosa; [12]): 5
- Percentage of strains having shown growth (Pseudomonas aeruginosa; [12]): (10%)
- Number of strains having shown growth (Pseudomonas aeruginosa; [13]): 5
- Percentage of strains having shown growth (Pseudomonas aeruginosa; [13]): (10%)
- Number of strains having shown growth (Pseudomonas aeruginosa; [14]): 5
- Percentage of strains having shown growth (Pseudomonas aeruginosa; [14]): (10%)

Compound: CCn1cc(C(=O)O)c(=O)c2ccc(C)nc21 [nalidixic acid]
- Number of strains having shown growth (Mycobacteria; [15]): 20
- Percentage of strains having shown growth (Mycobacteria; [15]): (100%)
- Number of strains having shown growth (Mycobacteria; [12]): 20
- Percentage of strains having shown growth (Mycobacteria; [12]): (100%)
- Number of strains having shown growth (Mycobacteria; [13]): 20
- Percentage of strains having shown growth (Mycobacteria; [13]): (100%)
- Number of strains having shown growth (Gram-positive bacteria; [15]): 9
- Percentage of strains having shown growth (Gram-positive bacteria; [15]): (90%)
- Number of strains having shown growth (Gram-positive bacteria; [12]): 8
- Percentage of strains having shown growth (Gram-positive bacteria; [12]): (80%)
- Number of strains having shown growth (Gram-positive bacteria; [13]): 7
- Percentage of strains having shown growth (Gram-positive bacteria; [13]): (70%)
- Number of strains having shown growth (Enterobacteria; [15]): 4
- Percentage of strains having shown growth (Enterobacteria; [15]): (57%)
- Number of strains having shown growth (Enterobacteria; [12]): 0
- Number of strains having shown growth (Enterobacteria; [13]): 0
- Number of strains having shown growth (Pseudomonas aeruginosa; [15]): 50
- Percentage of strains having shown growth (Pseudomonas aeruginosa; [15]): (100%)
- Number of strains having shown growth (Pseudomonas aeruginosa; [12]): 43
- Percentage of strains having shown growth (Pseudomonas aeruginosa; [12]): (86%)
- Number of strains having shown growth (Pseudomonas aeruginosa; [13]): 35
- Percentage of strains having shown growth (Pseudomonas aeruginosa; [13]): (70%)

From patent US20180030500A1, “ENRICHMENT AND SELECTIVE CULTURE OF MYCOBACTERIA” (priority 2015, published 2018)
